# Results reported in patent US20230105212A1, “BIPHENYL DERIVATIVE INHIBITOR, PREPARATION METHOD THEREFOR AND USE THEREOF” (SHANGHAI HANSOH BIOMEDICAL CO., LTD., priority 2020, published 2023).
# pIC50: −log10 of the molar value.
# Legend:
# [1] = system: NFAT-luc2/PD1 Jurkat cells; experiment: In vitro cytotoxicity on NFAT-luc2/PD1 Jurkat cells (CellTiter-Glo); assay type: cell-based; settings: 72 hours; for pIC50: Homo sapiens, Jurkat
# Protocol: (§1) Test Embodiment 5. In Vitro Cytotoxicity of the Compounds of the Present Disclosure on NFAT-Luc2/PD1 Jurkat Cells and MC38-hPDL1 Cells
# (§2) Experimental purpose: To test the in vitro cytotoxicity of compounds on NFAT-luc2/PD1 Jurkat cells and MC38-hPDL1 cells.
# (§3) When the cells were cultured to an appropriate degree of confluency, the cells were collected, and the cells was adjusted in an appropriate cell concentration by complete medium, then the cell suspension was plated in a 96-well plate, 90 μL per well, and put in a 37° C., 5% CO2 incubator overnight; compound solutions of different concentrations were prepared by DMSO and medium, and a vehicle control was set; compound solutions were added to a 96-well plate, 10 μL per well, and put in a 37° C., 5% CO2 incubator and cultured for 72 hours. After that, CellTiter-Glo solution was added, the mixture was shaken and mixed evenly, incubated in the dark for 10 minutes, and a BioTek Synergy H1 microplate reader was used for reading.
# (§4) Luminescence signal value was used to calculate the inhibition rate, and the concentration and inhibition rate were fitted by nonlinear regression curve using Graphpad Prism software to obtain IC50 values, as shown in the following table: […]
# [2] = molecular target: T1, human PD-1/PD-L1 binding (Homo sapiens, UniProt Q9NZQ7); experiment: Inhibition of human PD-1/PD-L1 binding (TR-FRET/HTRF); settings: TR-FRET, PD-L1-His and PD-1-Fc; read-out: PD-1/PD-L1 binding IC50
# T1 construct: PD-L1-His protein (19 to 238 amino acids) (Abcam #ab167713); purchased Abcam (PD-L1-His); R&D (PD-1-Fc) ab167713; 1086-PD
# Method in brief: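 PD-L1-His (aa 19–238, diluted to 10 nM) and PD-1-Fc (aa 25–167, diluted to 20 nM) incubated with compounds (10 μM or 1 μM top, 3-fold, 11 doses) 60 min at room temperature, then anti-6HIS Eu cryptate/anti-human IgG-XL665 added for 3 h RT or overnight 4 °C. HTRF 665/620 nm ratio gave inhibition and IC50.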
# [3] = molecular target: T2, human PD-L1 protein (Homo sapiens, UniProt Q9NZQ7); experiment: Thermal shift: melting temperature of PD-L1 protein; assay type: binding; settings: compound 10 μM, PD-L1 protein 2 μM, Tm minus DMSO vehicle control; read-out: ΔTm (° C.)
# T2 construct: purchased Acro Biosystems PD1-H5229
# Method in brief: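 Human PD-L1 at 2 μM final was tested in […], 150 mM NaCl with SYPRO Orange, heated 25→95 °C at 0.03 °C/s in a PCR melt-curve run. Tm was taken per treatment; ΔTm is the shift relative to DMSO vehicle.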
# [4] = system: MC38-hPDL1 cells; experiment: In vitro cytotoxicity on MC38-hPDL1 cells (CellTiter-Glo); assay type: cell-based, mouse; settings: for MC38-hPDL1 inhibition rate (%): 72 hours; for pIC50: Mus musculus, MC38-hPD-L1, 72 hours
# Protocol: as §1, §2, §3, §4
# [5] = molecular target: T3, PD-L1 protein on the surface of MC38-hPDL1 tumor cells (Homo sapiens, UniProt Q9NZQ7); experiment: Induction of endocytosis of PD-L1 on the surface of tumor cells (flow cytometry); assay type: cell-based; settings: 16 hours incubation; for Emax: MC38-hPDL1 cells, read-out: MC38 maximum endocytosis rate; for pIC50: inducing endocytosis of PD-L1, MC38-hPDL1 cells, read-out: MC38 IC50
# T3 construct: expressed in transfected cells; host or cells: MC38-hPDL1 (mouse colon cancer cells)
# Method in brief: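 MC38-hPDL1 mouse colon cancer cells overexpressing human PD-L1 were exposed to compound dilutions for 16 h at 37 °C. Surface PD-L1 was then stained with PE anti-human CD274 for 30 min at room temperature and measured by flow cytometry. Endocytosis rate versus concentration was fitted by nonlinear regression to give IC50.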
# T3 sequence (Q9NZQ7 19-290): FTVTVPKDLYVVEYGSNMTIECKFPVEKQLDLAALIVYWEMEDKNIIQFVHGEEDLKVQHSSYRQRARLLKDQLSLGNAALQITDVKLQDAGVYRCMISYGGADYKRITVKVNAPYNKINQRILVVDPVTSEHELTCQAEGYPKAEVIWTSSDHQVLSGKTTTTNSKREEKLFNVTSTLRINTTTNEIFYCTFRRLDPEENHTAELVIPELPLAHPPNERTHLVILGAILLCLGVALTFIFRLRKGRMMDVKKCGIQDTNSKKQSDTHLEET
# T2 sequence (Q9NZQ7 19-238 limits assumed): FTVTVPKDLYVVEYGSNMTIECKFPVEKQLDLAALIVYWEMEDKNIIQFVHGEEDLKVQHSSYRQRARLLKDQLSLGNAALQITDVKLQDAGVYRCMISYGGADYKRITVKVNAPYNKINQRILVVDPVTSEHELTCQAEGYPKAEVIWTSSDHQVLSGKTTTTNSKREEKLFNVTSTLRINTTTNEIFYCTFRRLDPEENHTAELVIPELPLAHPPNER
# T1 sequence (Q9NZQ7 19-238): as the sequence (Q9NZQ7 19-238 limits assumed) above
pIC50 [2],ΔTm at 10 µM [3] [°C],Emax [5] [%],pIC50 [5],SMILES,Jurkat-PD1 inhibition rate (%) [1],pIC50 [1],MC38-hPDL1 inhibition rate (%) [4],pIC50 [4]
8.24,11.2,94,8.43,"COc1cc(C(=O)Nc2cccc(-c3cccc(NC(=O)c4nc5c(n4C)CCN(C)C5)c3Cl)c2C)ncc1CN[C@@H]1CCOC[C@@H]1F [Embodiment 30, N-(2-Chloro-3′-(5-((((3R,4R)-3-fluorotetrahydro-2H-pyran-4-yl)amino)methyl)-4-methoxypicolinamido)-2′-methyl-[1,1′-biphenyl]-3-yl)-1,5-dimethyl-4,5,6,7-tetrahydro-1H-imidazo[4,5-c]pyridine-2-carboxamide]",99.0%^,5.53,4.0%,< 5.00
8.30,17.3,96,–,"COc1nc(-c2cccc(-c3cccc(NC(=O)c4nc5c(n4C)CCN(C)C5)c3Cl)c2Cl)ccc1CN1CC(CO)C1 [Embodiment 215, N-(2,2′-Dichloro-3′-(5-((3-(hydroxymethyl)azetidin-1-yl)methyl)-6-methoxypyridin-2-yl)-[1,1′-biphenyl]-3-yl)-1,5-dimethyl-4,5,6,7-tetrahydro-1H-imidazo[4,5-c]pyridine-2-carboxamide]",85%,5.36,51%,5.03
8.03,12,87,7.96,"COc1nc(-c2cccc(-c3cccc(NC(=O)c4nc5c(n4C)CCN(C)C5)c3Cl)c2C)ccc1CNC1COC1 [Embodiment 112, N-(2-Chloro-3′-(6-methoxy-5-((oxetan-3-ylamino)methyl)pyridin-2-yl)-2′-methyl-[1,1′-biphenyl]-3-yl)-1,5-dimethyl-4,5,6,7-tetrahydro-1H-imidazo[4,5-c]pyridine-2-carboxamide]",57.0%^,5.06,13.0%^,< 5.00
8.40,11.3,90,–,"COc1nc(-c2cccc(-c3cccc(NC(=O)c4nc5c(n4C)CCN(C)C5)c3Cl)c2Cl)ncc1CN1CC(NC(C)=O)C1 [Embodiment 224, N-(3′-(5-((3-Acetylaminoazetidin-1-yl)methyl)-4-methoxypyrimidin-2-yl)-2,2′-dichloro-[1,1′-biphenyl]-3-yl)-1,5-dimethyl-4,5,6,7-tetrahydro-1H-imidazo[4,5-c]pyridine-2-carboxamide]",48%,5.02,1%,< 5.00
